Source: paper PMC4527783 (PLoS ONE, 2015)

Legend:
NOP receptor = settings: cited from earlier work
mouse vas deferens = settings: isolated mouse vas deferens; cited from earlier work
Excerpt: On comparing the data with a wider range of pharmacological assays carried in vitro or in vivo, noticeable discrepancies are only apparent for a number of synthetic peptides that are known as NOP partial agonists. Such divergences are likely explained by the variations in stimulus/response coupling efficiency that characterize different pharmacological preparations. In fact, in accordance with classical receptor theory, the effect of a partial agonist can range from none to an almost full response, depending on the extent of amplification that the sensitivity of the signaling pathway exerts on ... || Also the estimates of antagonist potency derived from BRET analysis were in substantial agreement with similar determinations made in a variety of different pharmacological studies. […] We found, however, that a 3-fold increase in ...

[1] = molecular target: Human NOP Rluc-tagged fusion protein (N/OFQ peptide receptor fused to Renilla luciferase) (human) (UniProt P41146)
Chain of Human NOP Rluc-tagged fusion protein (N/OFQ peptide receptor fused to Renilla luciferase) (human) (P41146 whole entry, the tested form may be a part): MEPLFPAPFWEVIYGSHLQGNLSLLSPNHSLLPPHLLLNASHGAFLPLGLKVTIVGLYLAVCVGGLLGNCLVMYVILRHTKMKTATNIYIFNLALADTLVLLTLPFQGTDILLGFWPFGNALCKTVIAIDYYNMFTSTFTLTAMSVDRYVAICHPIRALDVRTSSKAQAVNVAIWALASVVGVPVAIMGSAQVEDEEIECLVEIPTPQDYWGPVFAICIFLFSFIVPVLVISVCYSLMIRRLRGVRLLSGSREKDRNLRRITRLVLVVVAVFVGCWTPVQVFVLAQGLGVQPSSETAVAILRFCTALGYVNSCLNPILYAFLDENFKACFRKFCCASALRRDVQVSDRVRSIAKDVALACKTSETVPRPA

Compound	antagonist potency estimate (pKB), [^35S]GTPγS binding (NOP receptor)	reversibility of antagonist action on washing (mouse vas deferens)	pA2, rightward shift of the concentration-response curve of N/OFQ for arrestin coupling (BRET, whole cells); value as the sentence prints it, differs from Table 3 (pA2 (-log10 M)) [1]
Cc1cccc2c1CC[C@H](CN1CCC(c3c(Cl)cccc3Cl)CC1)C[C@@H]2O [SB-612111, (-)-cis-1-methyl-7-[[4-(2,6-dichlorophenyl)piperidin-1-yl]methyl]-6,7,8,9-tetrahy dro-5H-benzocyclohepten-5-ol]	9.70	remains unchanged even after 3 hours of repeated washing	
UFP-101 (peptide)			9.42
